In patent US20110105623A1 (Biogenic Innovations, LLC, priority 2009, published 2011):
Where “and” joins values, the source holds several entries; their conditions need not be identical. Equal entries are not always repeated. Where two headings read alike, the source gives them in different places.

How the values were obtained:
[1] = test system: Lactobacillus acidophilus; assay: Probiotic growth in media supplemented with MSM; assay type: cell-based
Description: Plates were then counted. […] Data are presented in Cfu/mL.

[2] = test system: Swine-like H1N1 Influenza A virus strain A/California/04/2009; assay type: cell-based

Methylsulfonylmethane [MSM] was tested, and the “Growth of Lactobacillus acidophilus” value ([1]; 0.125% MSM, 24 h) was 7.14 log10 CFU/mL, the “Growth of Lactobacillus acidophilus” value ([1]; 0.125% MSM, 32 h) was 9.15 log10 CFU/mL and the “Growth of Lactobacillus acidophilus” value ([1]; 0.125% MSM, 40 h) was 9.53 log10 CFU/mL. The “Growth of Lactobacillus acidophilus” value ([1]; 0.125% MSM, 48 h) was 9.59 log10 CFU/mL, the “Growth of Lactobacillus acidophilus” value ([1]; 0.125% MSM, 56 h) was 10.16 log10 CFU/mL and the “Growth of Lactobacillus acidophilus” value ([1]; 0.125% MSM, 64 h) was 9.40 log10 CFU/mL. The “Growth of Lactobacillus acidophilus” value ([1]; 0.125% MSM, 72 h) was 8.56 log10 CFU/mL, the “Growth of Lactobacillus acidophilus” value ([1]; 0.2% MSM, 0 h) was 1.37 log10 CFU/mL and the “Growth of Lactobacillus acidophilus” value ([1]; 0.2% MSM, 8 h) was 1.43 log10 CFU/mL. For the same substance, the “Growth of Lactobacillus acidophilus” value ([1]; 0.2% MSM, 16 h) was 5.74 log10 CFU/mL, the “Growth of Lactobacillus acidophilus” value ([1]; 0.2% MSM, 24 h) was 8.19 log10 CFU/mL and the “Growth of Lactobacillus acidophilus” value ([1]; 0.2% MSM, 32 h) was 9.85 log10 CFU/mL. For the same substance, the “Growth of Lactobacillus acidophilus” value ([1]; 0.2% MSM, 40 h) was 9.50 log10 CFU/mL, the “Growth of Lactobacillus acidophilus” value ([1]; 0.2% MSM, 48 h) was 9.32 log10 CFU/mL and the “Growth of Lactobacillus acidophilus” value ([1]; 0.2% MSM, 56 h) was 9.26 log10 CFU/mL. For the same substance, the “Growth of Lactobacillus acidophilus” value ([1]; 0.2% MSM, 64 h) was 9.37 log10 CFU/mL, the “Growth of Lactobacillus acidophilus” value ([1]; 0.2% MSM, 72 h) was 8.36 log10 CFU/mL and the “Growth of Lactobacillus acidophilus” value ([1]; 0.50% MSM, 0 h) was 1.30 log10 CFU/mL. The “Growth of Lactobacillus acidophilus” value ([1]; 0.50% MSM, 8 h) was 2.01 log10 CFU/mL, the “Growth of Lactobacillus acidophilus” value ([1]; 0.50% MSM, 16 h) was 3.82 log10 CFU/mL and the “Growth of Lactobacillus acidophilus” value ([1]; 0.50% MSM, 24 h) was 6.47 log10 CFU/mL. The “Growth of Lactobacillus acidophilus” value ([1]; 0.50% MSM, 32 h) was 9.15 log10 CFU/mL, the “Growth of Lactobacillus acidophilus” value ([1]; 0.50% MSM, 40 h) was 9.58 log10 CFU/mL and the “Growth of Lactobacillus acidophilus” value ([1]; 0.50% MSM, 48 h) was 10.45 log10 CFU/mL. The “Growth of Lactobacillus acidophilus” value ([1]; 0.50% MSM, 56 h) was 9.33 log10 CFU/mL, the “Growth of Lactobacillus acidophilus” value ([1]; 0.50% MSM, 64 h) was 9.53 log10 CFU/mL and the “Growth of Lactobacillus acidophilus” value ([1]; 0.50% MSM, 72 h) was 8.57 log10 CFU/mL. For the same substance, the “Growth of Lactobacillus acidophilus” value ([1]; 1% MSM, 0 h) was 1.48 log10 CFU/mL, the “Growth of Lactobacillus acidophilus” value ([1]; 1% MSM, 8 h) was 2.25 log10 CFU/mL and the “Growth of Lactobacillus acidophilus” value ([1]; 1% MSM, 16 h) was 3.79 log10 CFU/mL. The “Growth of Lactobacillus acidophilus” value ([1]; 1% MSM, 24 h) was 6.77 log10 CFU/mL, the “Growth of Lactobacillus acidophilus” value ([1]; 1% MSM, 32 h) was 9.05 log10 CFU/mL and the “Growth of Lactobacillus acidophilus” value ([1]; 1% MSM, 40 h) was 9.49 log10 CFU/mL. The “Growth of Lactobacillus acidophilus” value ([1]; 1% MSM, 48 h) was 10.98 log10 CFU/mL, the “Growth of Lactobacillus acidophilus” value ([1]; 1% MSM, 56 h) was 10.90 log10 CFU/mL and the “Growth of Lactobacillus acidophilus” value ([1]; 1% MSM, 64 h) was 10.34 log10 CFU/mL. For the same substance, the “Growth of Lactobacillus acidophilus” value ([1]; 1% MSM, 72 h) was 8.68 log10 CFU/mL, the “Growth of Lactobacillus acidophilus” value ([1]; 5% MSM, 0 h) was 1.52 log10 CFU/mL and the “Growth of Lactobacillus acidophilus” value ([1]; 5% MSM, 8 h) was 1.37 log10 CFU/mL. For the same substance, the “Growth of Lactobacillus acidophilus” value ([1]; 5% MSM, 16 h) was 2.69 log10 CFU/mL, the “Growth of Lactobacillus acidophilus” value ([1]; 5% MSM, 24 h) was 5.36 log10 CFU/mL and the “Growth of Lactobacillus acidophilus” value ([1]; 5% MSM, 32 h) was 8.91 log10 CFU/mL. The “Growth of Lactobacillus acidophilus” value ([1]; 5% MSM, 40 h) was 9.25 log10 CFU/mL, the “Growth of Lactobacillus acidophilus” value ([1]; 5% MSM, 48 h) was 10.88 log10 CFU/mL and the “Growth of Lactobacillus acidophilus” value ([1]; 5% MSM, 56 h) was 10.01 log10 CFU/mL. The “Growth of Lactobacillus acidophilus” value ([1]; 5% MSM, 64 h) was 8.95 log10 CFU/mL, the “Growth of Lactobacillus acidophilus” value ([1]; 5% MSM, 72 h) was 6.66 log10 CFU/mL and the “Growth of Lactobacillus acidophilus” value ([1]; […] MSM, 0 h) was 1.48 log10 CFU/mL. The “Growth of Lactobacillus acidophilus” value ([1]; […] MSM, 8 h) was 2.20 log10 CFU/mL, the “Growth of Lactobacillus acidophilus” value ([1]; […] MSM, 16 h) was 4.24 log10 CFU/mL and the “Growth of Lactobacillus acidophilus” value ([1]; […] MSM, 24 h) was 5.78 log10 CFU/mL. For the same substance, the “Growth of Lactobacillus acidophilus” value ([1]; […] MSM, 32 h) was 9.16 log10 CFU/mL, the “Growth of Lactobacillus acidophilus” value ([1]; […] MSM, 40 h) was 9.35 log10 CFU/mL and the “Growth of Lactobacillus acidophilus” value ([1]; […] MSM, 48 h) was 10.16 log10 CFU/mL. The “Growth of Lactobacillus acidophilus” value ([1]; […] MSM, 56 h) was 11.10 log10 CFU/mL, the “Growth of Lactobacillus acidophilus” value ([1]; […] MSM, 64 h) was 11.58 log10 CFU/mL and the “Growth of Lactobacillus acidophilus” value ([1]; […] MSM, 72 h) was 8.44 log10 CFU/mL. The “Average Log Stimulation” value [2] was 0.17log10, the “Average Percent Stimulation” value [2] was 32.39% and the “Average TCID50” value [2] was 3.67log10 and 4.42log10 and 4.67log10 and 5.00log10 and 4.58log10 and 4.17log10. The “CPE at dilution −6” value [2] was 0000, the “CPE at dilution −7” value [2] was 0000 and the “Log Stimulation” value [2] was 0.17log10. The “Percent Stimulation” value [2] was 32.39%, the TCID50 [2] was 3.75log10 and 3.50log10 and 4.00log10 and 4.50log10 and 4.25log10 and 4.75log10 and 5.00log10 and the average percent reduction [2] was 93.08% and 90.00% and 61.10% and 78.12%. For the same substance, the “average log10 reduction” value ([2]; 1% MSM) was 0.25 log10, the average percent reduction ([2]; 1% MSM) was 43.77% and the “average log10 reduction” value ([2]; 2% MSM) was 0.41 log10. The average percent reduction ([2]; 2% MSM) was 61.10%, the “average log10 reduction” value ([2]; 3% MSM) was 0.00 log10 and the average percent reduction ([2]; 3% MSM) was 00.00%. For the same substance, the “average log10 reduction” value ([2]; 4% MSM) was 0.16 log10, the average percent reduction ([2]; 4% MSM) was 30.82% and the “Response, % reduction” value ([2]; Dose 5.312 mM (log dose 0.7252581)) was 91.680% and 53.230% and 73.700%. The “Response, % reduction” value ([2]; Dose 31.871 mM (log dose 1.503396)) was 0.000%, the “Response, % reduction” value ([2]; Dose 53.118 mM (log dose 1.725242)) was 53.230% and 73.700% and the “HillSlope, best-fit value” ([2]; log(inhibitor) vs. normalized response, variable slope) was 0.2135. For the same substance, the “LogIC50, best-fit value” ([2]; log(inhibitor) vs. normalized response, variable slope, dose in mM) was 0.7087.
